Results from ChEMBL document CHEMBL1201862, “PubChem BioAssay data set” (2004).
“And” between values parts separate entries of the source, which are not always exact repeats. Equal values may be shown once.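 1) Cells in 96-well plates. 2) Compound, 48 h, 5 concentrations. 3) Linear interpolation between surrounding doses. 4) Unreached endpoint = highest concentration. At the GI50, growth is halved.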 The source made the active and inactive calls. Cut-off read from the data, not from the text of the source: active = GI50 up to about 1.1 µM and inactive = higher.

What was measured:
Assay in all cases: growth of human tumour cells (NCI), 48 h
SN12C = system: SN12C
UACC-257 = system: UACC-257
EKVX = system: EKVX
PC-3 = system: PC-3
RXF 393 = system: RXF 393
OVCAR-3 = system: OVCAR-3
UO-31 = system: UO-31
SNB-19 = system: SNB-19
SR = system: SR
COLO 205 = system: COLO 205
HL-60 = system: HL-60
TK-10 = system: TK-10
NCI-H226 = system: NCI-H226
U-251 = system: U-251
SK-OV-3 = system: SK-OV-3
Hs-578T = system: Hs-578T
CAKI-1 = system: CAKI-1
UACC-62 = system: UACC-62
MDA-N = system: MDA-N
KM12 = system: KM12
SK-MEL-2 = system: SK-MEL-2
MDA-MB-435 = system: MDA-MB-435
IGROV-1 = system: IGROV-1
OVCAR-5 = system: OVCAR-5
HCT-15 = system: HCT-15
OVCAR-8 = system: OVCAR-8
K562 = system: K562
SF-295 = system: SF-295
SW-620 = system: SW-620
BT-549 = system: BT-549
MOLT-4 = system: MOLT-4
CCRF-CEM = system: CCRF-CEM
HCC 2998 = system: HCC 2998
DU-145 = system: DU-145
Malme-3M = system: Malme-3M
OVCAR-4 = system: OVCAR-4
MCF7 = system: MCF7
LOX IMVI = system: LOX IMVI
SK-MEL-28 = system: SK-MEL-28
NCI-H522 = system: NCI-H522
A498 = system: A498
HOP-92 = system: HOP-92
HT-29 = system: HT-29
RPMI-8226 = system: RPMI-8226
NCI/ADR-RES = system: NCI/ADR-RES
M14 = system: M14
A549 = system: A549
NCI-H23 = system: NCI-H23
786-0 = system: 786-0
ACHN = system: ACHN
NCI-H460 = system: NCI-H460
SF-539 = system: SF-539
SK-MEL-5 = system: SK-MEL-5
HCT-116 = system: HCT-116

Compound: N#Cc1c2c(c(-c3cccs3)n(C3OC(CO)C(O)C(O)C3O)c1=S)CCc1ccccc1-2 (stereo unspecified)
- GI50 (SN12C): > 26.7 µM (inactive) and > 21.7 µM (inactive)
- GI50 (UACC-257): > 43.8 µM (inactive) and > 51.2 µM (inactive)
- GI50 (EKVX): > 24.9 µM (inactive)
- GI50 (PC-3): 46.3 µM (inactive) and 28.4 µM (inactive)
- GI50 (RXF 393): 24.3 µM (inactive) and 23 µM (inactive)
- GI50 (OVCAR-3): 20.8 µM (inactive) and 22.5 µM (inactive)
- GI50 (UO-31): 3.04 µM (inactive)
- GI50 (SNB-19): > 100 µM (inactive) and 98.2 µM (inactive)
- GI50 (SR): 5.82 µM (inactive) and 4.76 µM (inactive)
- GI50 (COLO 205): 30 µM (inactive) and 40 µM (inactive)
- GI50 (HL-60): > 20.9 µM (inactive)
- GI50 (TK-10): > 29 µM (inactive) and > 20.8 µM (inactive)
- GI50 (NCI-H226): > 100 µM (inactive)
- GI50 (U-251): 37.2 µM (inactive) and 21.4 µM (inactive)
- GI50 (SK-OV-3): 7.67 µM (inactive) and 7.45 µM (inactive)
- GI50 (Hs-578T): 8.97 µM (inactive) and 5.97 µM (inactive)
- GI50 (CAKI-1): 6.65 µM (inactive) and 6.14 µM (inactive)
- GI50 (UACC-62): 5.64 µM (inactive) and 7.8 µM (inactive)
- GI50 (MDA-N): 6.4 µM (inactive) and 4.23 µM (inactive)
- GI50 (KM12): > 45.6 µM (inactive) and 38.2 µM (inactive)
- GI50 (SK-MEL-2): > 100 µM (inactive) and > 56.8 µM (inactive)
- GI50 (MDA-MB-435): 3.36 µM (inactive) and 3.44 µM (inactive)
- GI50 (IGROV-1): 97.9 µM (inactive) and > 86.3 µM (inactive)
- GI50 (OVCAR-5): > 100 µM (inactive)
- GI50 (HCT-15): 7.03 µM and 6.32 µM
- GI50 (OVCAR-8): 97.5 µM (inactive) and > 87.7 µM (inactive)
- GI50 (K562): 6.58 µM (inactive) and 4.93 µM (inactive)
- GI50 (SF-295): 27.6 µM (inactive) and 48.6 µM (inactive)
- GI50 (SW-620): > 100 µM (inactive)
- GI50 (BT-549): > 100 µM (inactive)
- GI50 (MOLT-4): 8.32 µM (inactive) and 14.3 µM (inactive)
- GI50 (CCRF-CEM): > 57.8 µM (inactive) and 36.8 µM (inactive)
- GI50 (HCC 2998): 59.8 µM (inactive) and > 41.5 µM (inactive)
- GI50 (DU-145): > 100 µM (inactive)
- GI50 (Malme-3M): 66.2 µM (inactive) and 35.6 µM (inactive)
- GI50 (OVCAR-4): 29.8 µM (inactive) and > 39 µM (inactive)
- GI50 (MCF7): 5.42 µM (inactive) and 3.85 µM (inactive)
- GI50 (LOX IMVI): > 22.3 µM (inactive) and > 22.2 µM (inactive)
- GI50 (SK-MEL-28): > 100 µM (inactive)

Compound: CCOC(=O)[C@H](Cc1ccc(O)cc1)/N=C1/[C@H]2CCC[C@]1(O)[C@@](C)([N+](=O)[O-])C2
- GI50 (NCI-H522): 63.7 µM (inactive)
- GI50 (SN12C): > 100 µM (inactive)
- GI50 (UACC-257): > 100 µM (inactive)
- GI50 (EKVX): > 100 µM (inactive)
- GI50 (RXF 393): > 100 µM (inactive)
- GI50 (OVCAR-3): > 100 µM (inactive)
- GI50 (UO-31): > 100 µM (inactive)
- GI50 (A498): > 100 µM (inactive)
- GI50 (SNB-19): > 100 µM (inactive)
- GI50 (SR): > 100 µM (inactive)
- GI50 (HOP-92): > 100 µM (inactive)
- GI50 (HT-29): > 100 µM (inactive)
- GI50 (RPMI-8226): > 100 µM (inactive)
- GI50 (COLO 205): > 100 µM (inactive)
- GI50 (HL-60): > 100 µM (inactive)
- GI50 (TK-10): > 100 µM (inactive)
- GI50 (NCI-H226): > 100 µM (inactive)
- GI50 (U-251): > 100 µM (inactive)
- GI50 (SK-OV-3): > 100 µM (inactive)
- GI50 (Hs-578T): > 100 µM (inactive)
- GI50 (NCI/ADR-RES): > 100 µM (inactive)
- GI50 (CAKI-1): > 100 µM (inactive)
- GI50 (M14): > 100 µM (inactive)
- GI50 (UACC-62): > 100 µM (inactive)
- GI50 (MDA-N): > 100 µM (inactive)
- GI50 (KM12): > 100 µM (inactive)
- GI50 (MDA-MB-435): > 100 µM (inactive)
- GI50 (IGROV-1): > 100 µM (inactive)
- GI50 (A549): > 100 µM (inactive)
- GI50 (OVCAR-5): > 100 µM (inactive)
- GI50 (NCI-H23): > 100 µM (inactive)
- GI50 (HCT-15): > 100 µM
- GI50 (786-0): > 100 µM (inactive)
- GI50 (OVCAR-8): > 100 µM (inactive)
- GI50 (K562): > 100 µM (inactive)
- GI50 (ACHN): > 100 µM (inactive)
- GI50 (SF-295): > 100 µM (inactive)
- GI50 (NCI-H460): > 100 µM (inactive)
- GI50 (SW-620): > 100 µM (inactive)
- GI50 (BT-549): > 100 µM (inactive)
- GI50 (SF-539): > 100 µM (inactive)
- GI50 (MOLT-4): > 100 µM (inactive)
- GI50 (CCRF-CEM): > 100 µM (inactive)
- GI50 (HCC 2998): > 100 µM (inactive)
- GI50 (DU-145): > 100 µM (inactive)
- GI50 (Malme-3M): > 100 µM (inactive)
- GI50 (SK-MEL-5): > 100 µM (inactive)
- GI50 (HCT-116): > 100 µM (inactive)
- GI50 (OVCAR-4): > 100 µM (inactive)
- GI50 (MCF7): > 100 µM (inactive)
- GI50 (LOX IMVI): > 100 µM (inactive)
- GI50 (SK-MEL-28): > 100 µM (inactive)
